Read-outs that look alike come from different tables or passages of the source.
Key:
SelH = SelH (Homo sapiens, UniProt Q8IZQ5, U44C); test: Surface plasmon resonance (SPR) detection of affinity between compounds and SelH; assay type: binding; conditions: for binding activity to the SelH (in words): ranking within the table's compounds
Source text: A Cys-deficient Escherichia coli expression system was adopted, which is an effective method to prepare selenoprotein found in recent years. Itsbasic principle is as follows: the characteristic that Cys transfer RNA (tRNACys) can bind to Sec was utilized, and a culture medium which is lack of cysteine (Cys) and rich in Selenium cysteine (Sec) was used for culturing a strain, so that Sec was successfully incorporated into newly expressed protein. According to existing literature reports, a human SelH gene sequence was obtained. Selenocysteine of the SelH is in the middle of the sequence and was terminated here during prokaryotic expression, so that the selenocysteine was mutated from a triple codon TGA of the selenocysteine into TGC, which was synthesized by the Sangon Bioengineering (Shanghai) Co., Ltd. In addition, the adopted SPP system was a single protein production system, and a principle of the SPP system was to induce MazF enzyme (mRNA interfering enzyme for cutting RNA on an ACA nucleotide sequence) to cause growth arrest of thalli. The enzyme can specifically recognize and cut the ACA sequence and prevent synthesis of other background proteins in bacteria. Therefore, when mRNA of the desired target protein was encoded, if the mRNA can be designed into a form lacking an ACA base triplet according to an amino acid encoding rule and was induced at 15° C. by using a pCold vector in cells expressing MazF, the mRNA was not enzymatically hydrolyzed, only a protein derived from the mRNA was generated, and there was little synthesis of other cell proteins.
A pColdI-selH plasmid was transformed into BL21 (DE3) Cys-deficient Escherichia coli, so as to obtain a defective expression bacterium pColdI-selH. Sec was added during culture, making it become selenium-containing protein. The target protein was purified by using Ni^2+ column chelating chromatography, and impure protein was eluted by using an imidazole eluent of different concentrations to finally obtain the target protein. Soluble SelH protein was finally obtained, and SDS-PAGE (sodium dodecyl sulfate polyacrylamide gel electrophoresis) analysis was carried out.
A surface plasmon resonance (SPR) method was adopted to detect the interaction condition of a small molecule and a protein, so that the screening of drugs targeting SelH was carried out.
Purified SelH was diluted into a 50 μg/mL protein solution by using 10 mM sodium acetate with a pH value of 5.5, the purified SelH was fixed onto a CM5 chip by an amino coupling method by using Biacore 8K (GE Healthcard, Sweden), and an RU value was recorded.
An isopentenyl or isovaleryl substituted coumarin compound, or a triterpenoid compound with an isopentenyl-like structure (the compound specifically includes aurapten, protopanaxadiol, iso-imperatorin, decursin, osthol, notoginsenoside R1 and shionon) was dissolved in 100% DMSO to be prepared into solutions containing 5% DMSO of different concentrations (0, 31.25, 62.5, 125, 250 and 500 μM) by using a 1.05×PBS-P^+ buffer solution (GE Healthcare, obtained by diluting 10×PBS-P^+).
A single-cycle kinetics method was adopted, the 1.05×PBS-P^+ buffer solution containing 5% DMSO was used as a Running Buffer, different compounds of different concentrations flowed through the SelH fixed onto the chip, wherein the binding time was 120 s, and the change condition of the RU value was recorded. An equilibrium dissociation constant (KD) was calculated by using software in Biacore 8K so as to evaluate the binding affinity between the protein and the compounds. The SPR detection result of the affinity between compounds and SelH in Embodiment 2 of the present disclosure is as shown in FIG. 1A-G, and the result statistics is as shown in Table 1.
(1) Screening of small molecule drugs by taking SelH as a target A surface plasmon resonance (SPR) method was adopted to detect the interaction condition of a small molecule and a protein, so that the screening of drugs targeting SelH was carried out. […]

[1] = system: human non-small cell lung cancer cells A549; test: MTT in-vitro anti-tumor activity test, A549
Protocol: (§1) Experimental Materials Human non-small cell lung cancer cells A549, mouse breast cancer cells 4T-1 and mouse melanoma B16-BL6 were purchased from American Type Current Collection (ATCC, Rockville, MD, USA). An RPMI-1640 culture solution containing 10% of fetal calf serum and 2% of glutamine was inoculated with the A549, 4T-1 and B16-BL6 cells, and the cells were incubated at 37° C. in a 5% CO2 incubator.
(§2) The compounds were dissolved in DMSO under a sterile condition, and the obtained solutions were diluted to required concentrations by using an RPMI 1640 culture solution, wherein the final concentration of the DMSO was less than 0.5%.
(§3) A549, 4T-1 and B16-BL6 were used as adherent cells, adherent tumor cells in a logarithmic phase were selected, digested with pancreatin, and then prepared into a cell suspension of 5×10^4/ml with a culture medium containing 10% of calf serum, a 96-well culture plate was inoculated with the cell suspension, wherein each well contained 100 μl of the cell suspension, and incubation was carried out for 24 h at 37° C. and 5% CO2. Replacing was carried out with a new culture solution containing the samples to be detected of different concentrations in the experimental groups, replacing was carried out with a culture solution containing a same volume of solvent in the control group, three parallel wells were set in each group, and incubation was carried out for 48 hours at 37° C. and 5% CO2. The supernate was discarded, careful washing was carried out with PBS twice, 100 μl of a freshly prepared culture medium containing 0.5 mg/ml of MTT was added into each well, and incubation was continued to be carried out at 37° C. for 4 h. The supernatant was carefully discarded, 150 μl of DMSO was added, uniform mixing was carried out for 10 min by using a micro oscillator, and the optical density value was measured at 492 nm by using a microplate reader.
(§4) Tumor cell growth inhibition ratio (%)=[A492 (negative control)−A492 (dosing group)]/A492 (negative control)×100%
(§5) The median inhibitory concentration (IC50) of the sample is calculated.

[2] = system: human non-small cell lung cancer cells A549
Protocol: as §1, §2, §3, §4, §5

[3] = system: mouse melanoma B16-BL6 cells; test: cells; assay type: cell-based
Source text: MTT reduction method is used.

[4] = system: mouse breast cancer 4T1 cells
Protocol: as §1, §2, §3, §4, §5

[5] = system: mouse breast cancer 4T1 cells; test: MTT in-vitro anti-tumor activity test, 4T1; conditions: read-out: IC50 cytotoxic effect on 4T1
Protocol: as §1, §2, §3, §4, §5

[6] = SPR Biacore 8K, single-cycle kinetics, Table 3, read-out: KD binding of macrolides and cyclic peptides to SelH
[7] = SPR Biacore 8K, single-cycle kinetics, Table 1, read-out: Dissociation constant KD of compounds and SelH
[8] = read-out: IC50 cytotoxic effect on B16-BL6, MTT, 48 hours, Table 1
[9] = Mus musculus, B16-BL6, 48 h, read-out: IC50 cytotoxic effect on B16-BL6
[10] = SPR Biacore 8K, single-cycle kinetics, Table 2, read-out: Dissociation constant KD of compounds and SelH
[11] = Homo sapiens, A549, 48 h, read-out: A549 IC50 cytotoxicity
[12] = read-out: IC50 cytotoxic effect on A549, MTT, 48 hours, Table 1
[13] = Homo sapiens, A549, 48 h, read-out: IC50 cytotoxic effect on A549
[14] = Mus musculus, B16-BL6, read-out: IC50 cytotoxic effect on B16-BL6, MTT, 48 hours, Table 1

**Q.** With `CO[C@@H]1[C@@H](O[C@@H]2O[C@H](C)[C@@H](O[C@H]3C[C@@](C)(O)[C@@H](O)[C@H](C)O3)[C@H](N(C)C)[C@H]2O)[C@@H](CC=O)C[C@@H](C)[C@@H](O[C@H]2CC[C@H](N(C)C)[C@@H](C)O2)/C=C/C=C/C[C@@H](C)OC(=O)C[C@H]1O` [Spiramycin, spiramycin] as the compound, how does the Kd (SelH; [6]) read?
**A.** 4.38 µM

**Q.** What about the “A549 IC50 cytotoxicity” value ([1]; MTT, 48 hours, Table 3) of the same compound?
**A.** 18.33 µg/mL

**Q.** What does the source list for `CC(C)=CCC[C@](C)(O[C@@H]1O[C@H](CO)[C@@H](O)[C@H](O)[C@H]1O)[C@H]1CC[C@]2(C)[C@@H]1[C@H](O)C[C@@H]1[C@@]3(C)CC[C@H](O)C(C)(C)[C@@H]3[C@@H](O[C@@H]3O[C@H](CO)[C@@H](O)[C@H](O)[C@H]3O[C@@H]3OC[C@@H](O)[C@H](O)[C@H]3O)C[C@]12C` [Notoginsenoside R1, notoginsenoside R1]?
**A.** IC50 [2]: 126 µM; Kd (SelH; [7]): 563 µM; binding activity to the SelH (in words) (SelH): weakest; IC50 [3, 8]: 111 µM; IC50 [4]: 100 µM

**Q.** For `CC(=O)O[C@H](CC=C(C)C)C1=CC(=O)c2c(O)ccc(O)c2C1=O` [Acetyl Shikonin, acetyl shikonin], which Kd (SelH) is on record?
**A.** 0.000464 µM

**Q.** And the “binding activity to the SelH (in words)” value (SelH)?
**A.** strongest

**Q.** What about the IC50 [3, 9] of the same compound?
**A.** 4.44 µM

**Q.** Which results are given for `CC(C)=CCc1c(-c2ccc(O)cc2O)oc2c3c(cc(O)c2c1=O)OC(C)(C)C=C3` [Morusin, morusin]?
**A.** Kd (SelH; [10]): 4030 µM; binding activity to the SelH (in words) (SelH): weakest; IC50 ([3]; Mus musculus, B16-BL6, read-out: IC50 cytotoxic effect on B16-BL6, MTT, 48 hours, Table 2): 37.9 µM

**Q.** Which results are given for `CC[C@H]1OC(=O)[C@H](C)[C@@H](O[C@H]2C[C@@](C)(OC)[C@@H](O)[C@H](C)O2)[C@H](C)[C@@H](O[C@@H]2O[C@H](C)C[C@H](N(C)C)[C@H]2O)[C@](C)(O)C[C@@H](C)CN(C)[C@H](C)[C@@H](O)[C@]1(C)O` [Azithromycin, azithromycin]?
**A.** Kd (SelH; [6]): 537 µM; binding activity to the SelH (in words) (SelH): weakest; IC50 [1, 11]: 72.4 µg/mL

**Q.** Which results are given for `CO[C@@H]1[C@@H](O[C@@H]2O[C@H](C)[C@@H](O[C@H]3C[C@@](C)(O)[C@@H](OC(=O)CC(C)C)[C@H](C)O3)[C@H](N(C)C)[C@H]2O)[C@@H](CC=O)C[C@@H](C)C(=O)/C=C/[C@@H]2O[C@H]2C[C@@H](C)OC(=O)C[C@H]1OC(C)=O` [Carbomycin, carbomycin]?
**A.** A549 IC50 cytotoxicity [2]: 11.79 µg/mL; Kd (SelH; [6]): 4.4 µM

**Q.** Which Kd (SelH; [7]) does the source give for `COc1ccc2ccc(=O)oc2c1CC=C(C)C` [Osthol, osthol] here?
**A.** 0.0851 µM

**Q.** What about the IC50 ([5]; MTT, 48 hours) of the same compound?
**A.** 67.4 µM

**Q.** What about the IC50 [1, 12] of the same compound?
**A.** 81.2 µM

**Q.** And the IC50 [3, 8]?
**A.** 100 µM

**Q.** For `CC(C)=CCC/C(C)=C/COc1ccc2ccc(=O)oc2c1` [Aurapten, aurapten], which IC50 [2] is on record?
**A.** 51.9 µM

**Q.** And the Kd (SelH; [7])?
**A.** 1.53e-05 µM

**Q.** What about the IC50 [3] of the same compound?
**A.** 61.9 µM

**Q.** And the IC50 [4]?
**A.** 37.7 µM

**Q.** How did the Kd (SelH; [6]) turn out when `CC[C@H]1OC(=O)[C@H](C)[C@@H](O[C@H]2C[C@@](C)(OC)[C@@H](O)[C@H](C)O2)[C@H](C)[C@@H](O[C@@H]2O[C@H](C)C[C@H](N(C)C)[C@H]2O)[C@](C)(O)C[C@@H](C)C(=O)[C@H](C)[C@@H](O)[C@]1(C)O` [Erythromycin, erythromycin] was run?
**A.** 10.4 µM

**Q.** And the IC50 [1, 11]?
**A.** 230 µg/mL

**Q.** Which results are given for `COc1c(O)cc2oc3cc(O)c(CC=C(C)C)c(O)c3c(=O)c2c1CC=C(C)C` [α-mangostin]?
**A.** Kd (SelH; [10]): 398 µM; IC50 ([3]; read-out: IC50 cytotoxic effect on B16-BL6, MTT, 48 hours, Table 2): 40.2 µM

**Q.** What does the source list for `COc1cc(O)c(CC=C(C)C)c2c1C(=O)CC(c1ccc(O)cc1)O2` (stereo not drawn) [Isoxanthohunol, isoxanthohunol]?
**A.** Kd (SelH; [10]): 2.43 µM; IC50 [3]: 29 µM

**Q.** How did the Kd (SelH; [7]) turn out when `CC(C)=CC(=O)O[C@H]1Cc2cc3ccc(=O)oc3cc2OC1(C)C` [Decursin, decursin] was run?
**A.** 0.00205 µM

**Q.** What about the IC50 ([5]; Mus musculus, 4T1, 48 h) of the same compound?
**A.** 38.2 µM

**Q.** And the IC50 [1, 13]?
**A.** 60 µM

**Q.** What about the IC50 [3, 14] of the same compound?
**A.** 67.8 µM

**Q.** How did the Kd (SelH; [7]) turn out when `CC(C)=CCOc1c2ccoc2cc2oc(=O)ccc12` [Iso-imperatorin, iso-imperatorin] was run?
**A.** 7.53e-05 µM

**Q.** And the “binding activity to the SelH (in words)” value (SelH)?
**A.** strongest

**Q.** What about the IC50 ([5]; Mus musculus, 4T1, 48 h) of the same compound?
**A.** 48.9 µM

**Q.** What about the IC50 [1, 13] of the same compound?
**A.** 72.5 µM

**Q.** And the IC50 [3, 14]?
**A.** 75.2 µM

**Q.** How did the Kd (SelH) turn out when `CC(C)=CC[C@@H](O)C1=CC(=O)c2c(O)ccc(O)c2C1=O` [Shikonin, shikonin] was run?
**A.** 5.42 µM

**Q.** And the IC50 [3, 9]?
**A.** 13 µM

**Q.** How did the Kd (SelH; [6]) turn out when `C=C(NC(=O)C(=C)NC(=O)c1csc(C2=N[C@@H]3c4csc(n4)[C@H]4NC(=O)c5csc(n5)[C@H]([C@](C)(O)[C@@H](C)O)NC(=O)[C@H]5CSC(=N5)/C(=C/C)NC(=O)[C@H]([C@@H](C)O)NC(=O)c5csc(n5)[C@]3(CC2)NC(=O)[C@H](C)NC(=O)C(=C)NC(=O)[C@H](C)NC(=O)[C@H]([C@@H](C)CC)N[C@@H]2C=Cc3c([C@H](C)O)cc(nc3[C@H]2O)C(=O)O[C@@H]4C)n1)C(N)=O` [Thiostrepton, thiostrepton] was run?
**A.** 19.9 µM

**Q.** What about the IC50 [1, 11] of the same compound?
**A.** 9.66 µg/mL

**Q.** `CC(C)=CCC[C@]1(C)CC[C@]2(C)[C@H]3CC[C@@]4(C)[C@@H](CCC(=O)[C@@H]4C)[C@]3(C)CC[C@@]2(C)C1` [Shionon, shionon] was tested. Which Kd (SelH; [7]) did it give?
**A.** 0.00676 µM

**Q.** What about the IC50 ([5]; MTT, 48 hours) of the same compound?
**A.** 82.4 µM

**Q.** What about the IC50 [1, 12] of the same compound?
**A.** 92.7 µM

**Q.** And the IC50 [3, 8]?
**A.** 93.9 µM

**Q.** With `CC(C)=CCCC(C)(O)[C@H]1CC[C@]2(C)[C@@H]1[C@H](O)C[C@@H]1[C@@]3(C)CC[C@H](O)C(C)(C)[C@@H]3CC[C@]12C` (stereo in doubt) [Protopanaxadiol, protopanoxadiol] as the compound, how does the Kd (SelH; [7]) read?
**A.** 6.71e-05 µM

**Q.** And the “binding activity to the SelH (in words)” value (SelH)?
**A.** strongest

**Q.** What about the IC50 ([5]; MTT, 48 hours) of the same compound?
**A.** 30.9 µM

**Q.** And the IC50 [1, 12]?
**A.** 54.4 µM

**Q.** And the IC50 [3, 8]?
**A.** 58 µM

— US20240118263A1, “TARGET FOR SCREENING ANTI-TUMOR DRUG, USE THEREOF AND SCREENING METHOD THEREFOR” (SHENYANG FUYANG PHARMACEUTICAL TECHNOLOGY CO., LTD., priority 2019, published 2024)
